Results reported in patent publication US11642349B2, “Method for treating cancer” (Epizyme, Inc., priority 2015, dated 2023).

How the values were obtained:
[1] = system: INI1-deleted malignant rhabdoid tumor (MRT) models; assay: INI1-deleted malignant rhabdoid tumor (MRT) models in vitro; format: cell-based
MRT xenograft = assay: MRT xenograft-bearing mice; format: in vivo
oral bioavailability = conditions: in vivo

CCN(c1cc(-c2ccc(CN3CCOCC3)cc2)cc(C(=O)NCc2c(C)cc(C)[nH]c2=O)c1C)C1CCOCC1 [EPZ-6438]
apoptosis and differentiation [1]: induce apoptosis and differentiation | apoptosis and differentiation (MRT xenograft): induce apoptosis and differentiation | oral bioavailability (oral bioavailability): orally bioavailable
